According to patent US20260028354A1, “TETRAHYDRONAPHTHALENE DERIVATIVES AS ESTROGEN RECEPTOR DEGRADERS” (REGENT OF THE UNIVERSITY OF MICHIGAN, priority 2022, published 2026):
Where two headings read alike, the source gives them in different places.

Columns and labels:
ER in MCF-7 cells = ER in MCF-7 cells (Homo sapiens (Human), UniProt P03372); test: In-cell Western (ICW) ER degradation assay in MCF-7 cells; format: cell-based; settings: for DC50: MCF-7, ER degradation, read-out: MCF7 DC50
CRBN/DDB1 = CRBN/DDB1 (Homo sapiens (Human), UniProt Q96SW2); format: binding; settings: His tagged CRBN+DDB1, Cy5-labeled Thalidomide probe, one hour; read-out: CRBN HTRF IC50
Chain of CRBN/DDB1 (Q96SW2 whole entry, species assumed): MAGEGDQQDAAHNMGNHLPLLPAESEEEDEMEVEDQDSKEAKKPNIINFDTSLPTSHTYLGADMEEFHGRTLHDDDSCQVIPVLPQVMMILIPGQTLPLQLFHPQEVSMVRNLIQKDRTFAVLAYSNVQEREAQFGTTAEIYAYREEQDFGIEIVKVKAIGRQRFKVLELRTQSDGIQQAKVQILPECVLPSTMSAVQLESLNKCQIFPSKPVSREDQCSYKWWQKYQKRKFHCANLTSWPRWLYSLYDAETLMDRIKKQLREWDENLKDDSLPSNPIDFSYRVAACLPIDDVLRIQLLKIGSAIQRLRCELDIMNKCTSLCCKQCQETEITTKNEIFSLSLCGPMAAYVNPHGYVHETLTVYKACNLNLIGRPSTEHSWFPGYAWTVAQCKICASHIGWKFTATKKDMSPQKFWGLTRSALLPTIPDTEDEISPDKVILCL
Chain of CRBN/DDB1 (Q16531 whole entry partner, species assumed): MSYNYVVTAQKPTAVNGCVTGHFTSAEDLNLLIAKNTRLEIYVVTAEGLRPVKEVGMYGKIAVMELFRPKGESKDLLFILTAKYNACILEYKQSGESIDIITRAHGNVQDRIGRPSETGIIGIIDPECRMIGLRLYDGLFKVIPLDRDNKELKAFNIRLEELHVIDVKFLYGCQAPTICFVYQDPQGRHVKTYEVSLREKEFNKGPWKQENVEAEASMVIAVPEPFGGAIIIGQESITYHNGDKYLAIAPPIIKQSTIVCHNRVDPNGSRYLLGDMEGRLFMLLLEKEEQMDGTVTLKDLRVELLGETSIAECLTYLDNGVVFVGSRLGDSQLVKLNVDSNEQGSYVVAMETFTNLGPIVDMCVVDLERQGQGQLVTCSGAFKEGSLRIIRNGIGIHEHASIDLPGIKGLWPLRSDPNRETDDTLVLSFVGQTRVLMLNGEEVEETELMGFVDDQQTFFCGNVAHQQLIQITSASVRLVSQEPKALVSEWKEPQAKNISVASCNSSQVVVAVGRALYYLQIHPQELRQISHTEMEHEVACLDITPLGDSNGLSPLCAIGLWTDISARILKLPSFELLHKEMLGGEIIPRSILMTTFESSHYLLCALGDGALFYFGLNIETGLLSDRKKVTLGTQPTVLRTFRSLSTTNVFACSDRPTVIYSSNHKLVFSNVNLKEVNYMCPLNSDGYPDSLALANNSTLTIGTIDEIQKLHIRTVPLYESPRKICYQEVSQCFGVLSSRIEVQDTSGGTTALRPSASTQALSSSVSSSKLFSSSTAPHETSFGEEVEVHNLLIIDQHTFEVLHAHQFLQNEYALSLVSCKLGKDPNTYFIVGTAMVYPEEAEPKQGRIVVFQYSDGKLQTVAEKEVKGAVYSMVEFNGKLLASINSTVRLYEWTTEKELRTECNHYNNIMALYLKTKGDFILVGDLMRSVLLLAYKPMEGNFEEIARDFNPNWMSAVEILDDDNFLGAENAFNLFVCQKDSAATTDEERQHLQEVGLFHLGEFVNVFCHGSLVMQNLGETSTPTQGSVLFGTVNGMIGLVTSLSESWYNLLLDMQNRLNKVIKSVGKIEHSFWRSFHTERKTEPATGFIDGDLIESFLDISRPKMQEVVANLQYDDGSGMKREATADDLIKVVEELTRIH
Procedure: The binding potency was determined using HTRF assay technology (Perkin Elmer). Compounds were serially diluted in DMSO and […] volume was transferred to white 384-well plate.

ER = ER (Homo sapiens (Human), UniProt P03372); test: In-cell western blot analysis of ER for "B" compounds; format: cell-based; settings: 16 hours, read-out: ICW DC50
Chain of ER (P03372 whole entry): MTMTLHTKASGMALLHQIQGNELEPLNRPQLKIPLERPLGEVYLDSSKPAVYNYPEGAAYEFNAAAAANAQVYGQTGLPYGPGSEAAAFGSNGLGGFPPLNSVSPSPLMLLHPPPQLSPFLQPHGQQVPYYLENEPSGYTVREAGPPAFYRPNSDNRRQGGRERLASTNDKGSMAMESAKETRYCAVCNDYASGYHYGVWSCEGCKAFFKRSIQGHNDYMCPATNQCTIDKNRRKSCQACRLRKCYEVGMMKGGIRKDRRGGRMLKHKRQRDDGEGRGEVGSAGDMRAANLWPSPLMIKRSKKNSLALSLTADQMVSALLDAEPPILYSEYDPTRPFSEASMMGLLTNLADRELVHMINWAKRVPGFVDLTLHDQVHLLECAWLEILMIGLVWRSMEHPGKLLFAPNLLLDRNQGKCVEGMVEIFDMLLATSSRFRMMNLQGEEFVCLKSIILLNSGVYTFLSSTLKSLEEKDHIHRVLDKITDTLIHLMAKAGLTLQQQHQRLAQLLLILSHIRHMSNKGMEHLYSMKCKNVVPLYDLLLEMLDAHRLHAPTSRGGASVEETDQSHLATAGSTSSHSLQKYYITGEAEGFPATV
How it was run: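 In-cell western: fixed cells stained with primary antibodies (2 h, RT), then anti-rabbit-680 and anti-mouse-800 secondaries (1:1000, 1 h, RT), imaged on a LI-COR plate reader. Relative ER level in treated wells expressed against untreated and DMSO-treated wells set as 100%.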

[1] = Cell growth assay (WST-8) for "B" compounds; format: cell-based; settings: T47D, read-out: Cell growth Inhibition in T47D cell line IC50
How it was run: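 Cells seeded at 1500/well overnight, then exposed to compounds for 4 days. 10% WST-8 added for 2.5 h at 37 °C and absorbance read at 450 nm. Growth given as absorbance relative to vehicle control, from three repeats.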

[2] = MCF7, read-out: MCF7 Dmax, MCF-7, maximal ER degradation, 16 hrs treatment
[3] = MCF7, MCF-7, maximal ER degradation, 16 hrs treatment, read-out: MCF7 Dmax

Chain of ER in MCF-7 cells (P03372 whole entry): as above

Structure (SMILES)	Dmax (ER in MCF-7 cells; [2]) [%]	DC50 (ER in MCF-7 cells; 16 hrs treatment) [nM]	IC50 (CRBN/DDB1) [nM]	Dmax (ER in MCF-7 cells; [3]) [%]	DC50 (ER) [nM]	IC50 ([1]; T47D cell line) [nM]	IC50 [1] [nM]
O=C1CC[C@H](N2Cc3c(ccc4c3OCC43CCN(C4CN(CCOc5ccc([C@@H]6c7ccc(O)cc7CC[C@@H]6c6ccccc6)cc5)C4)CC3)C2=O)C(=O)N1 [Compound A80, (S)-3-(1′-(1-(2-(4-((1R,2S)-6-hydroxy-2-phenyl-1,2,3,4-tetrahydronaphthalen-1-yl)-phenoxy)ethyl)azetidin-3-yl)-6-oxo-6,8-dihydro-2H,7H-spiro[furo[2,3-c]isoindolc-3,4′-piperidin]-7-yl)piperidine-2,6-dione]	50 to 75	< 1	< 50	–	–	–	–
O=C1CC[C@H](N2Cc3cc4c(cc3C2=O)OC[C@@H]2CN(CC3CC5(CCN(c6ccc([C@@H]7c8ccc(O)cc8CC[C@@H]7c7ccccc7)cc6F)CC5)C3)CCN42)C(=O)N1 (single isomer, unassigned) [Compound A150]	–	10 to 100	500 to 5000	50 to 75	–	–	–
O=C1CC[C@H](N2Cc3c(ccc4c3OC[C@H]3CN(CC5CCC6(CC5)CN(c5ncc([C@@H]7c8ccc(O)cc8CC[C@@H]7c7ccccc7)cn5)C6)CCN43)C2=O)C(=O)N1 (single isomer, unassigned) [Compound A156]	–	< 1	50 to 500	> 75	–	–	–
O=C1CC[C@H](N2Cc3c(ccc4c3OCC43CCN(CC4CCN(c5ccc([C@@H]6c7ccc(O)cc7CC[C@@H]6c6ccccc6)cc5)CC4)CC3)C2=O)C(=O)N1 [Compound A70, (S)-3-(1′-((1-(4-((1R,2S)-6-hydroxy-2-phenyl-1,2,3,4-tetrahydronaphthalen-1-yl)-phenyl)piperidin-4-yl)methyl)-6-oxo-6,8-dihydro-2H,7H-spiro[furo[2,3-e]isoindole-3,4′-piperidin]-7-yl)piperidine-2,6-dione]	50 to 75	< 1	< 50	–	–	–	–
O=C1CC[C@H](N2Cc3c(ccc4c3OC[C@H]3CN(CC5CCC6(CC5)CN(c5ccc([C@@H]7c8ccc(O)cc8CC[C@@H]7c7ccccc7)cc5F)C6)CCN43)C2=O)C(=O)N1 (single isomer, unassigned) [Compound A152]	–	1 to 10	500 to 5000	50 to 75	–	–	–
O=C1CC[C@H](N2Cc3c(ccc4c3OCC43CCN(CC4CC5COCC(C4)N5c4ccc([C@@H]5c6ccc(O)cc6CC[C@@H]5c5ccccc5)cc4)CC3)C2=O)C(=O)N1 (stereo partly drawn) [Compound A81, (3S)-3-(1′-((9-(4-((1R,2S)-6-hydroxy-2-phenyl-1,2,3,4-tetra-hydronaphthalen-1-yl)phenyl)-3-oxa-9-azabicyclo[3.3.1]nonan-7-yl)methyl)-6-oxo-6,8-dihydro-2H,7H-spiro[furo[2,3-e]isoindole-3,4′-piperidin]-7-yl)piperidine-2,6-dione]	25 to 50	< 1	< 50	–	–	–	–
O=C1CC[C@H](N2Cc3cc4c(cc3C2=O)OC[C@@H]2CN(CC3CCC5(CC3)CN(c3ccc([C@@H]6c7ccc(O)cc7CC[C@@H]6c6ccccc6)cc3)C5)CCN42)C(=O)N1 (single isomer, unassigned) [Compound A63]	–	–	500 to 5000	–	–	–	–
O=C1CC[C@H](N2Cc3cc4c(cc3C2=O)OC[C@@H]2CN(CC3CCC5(CC3)CN(c3ncc([C@H]6c7ccc(O)cc7CC[C@H]6c6ccccc6)cn3)C5)CCN42)C(=O)N1 (single isomer, unassigned) [Compound A157]	–	10 to 100	500 to 5000	< 25	–	–	–
O=C1CC[C@H](N2Cc3c(ccc4c3OCC43CCN(CC4CCC5(CC4)CN(c4ncc([C@H]6c7ccc(O)cc7CC[C@H]6c6ccccc6)cn4)C5)CC3)C2=O)C(=O)N1 [Compound A153, (S)-3-(1′-((2-(5-((1R,2R)-6-hydroxy-2-phenyl-1,2,3,4-tetrahydronaphthalen-1-yl)pyrimidin-2-yl)-2-azaspiro[3.5]nonan-7-yl)methyl)-6-oxo-6,8-dihydro-2H,7H-spiro[furo[2,3-e]isoindole-3,4′-piperidin]-7-yl)piperidine-2,6-dione]	< 25	> 100	< 50	–	–	–	–
COc1cc(N2CCC3(CC2)CC(CN2CCN4c5ccc6c(c5OC[C@H]4C2)CN([C@H]2CCC(=O)N(C)C2=O)C6=O)C3)ccc1[C@@H]1c2ccc(O)cc2CC[C@@H]1c1ccccc1 (single isomer, unassigned) [Compound A132]	–	1 to 10	500 to 5000	50 to 75	–	–	–
O=C1CCC(NC(=O)c2ccc(C3CCN(CC4CCN(c5ccc([C@@H]6c7ccc(O)cc7CC[C@@H]6c6ccccc6)cc5)CC4)CC3)cn2)C(=O)N1 (stereo partly drawn) [Compound A3, N-(2,6-dioxopiperidin-3-yl)-5-(1-((1-(4-((1R,2S)-6-hydroxy-2-phenyl-1,2,3,4-tetrahydro-naphthalen-1-yl)phenyl)piper-idin-4-yl)methyl)piperidin-4-yl)picolinamide]	–	< 1	> 5000	25 to 50	–	–	–
COc1cc([C@H]2c3ccc(O)cc3CC[C@H]2c2ccccc2)c(F)cc1N1CCC2(CC1)CC(CN1CCN3c4ccc5c(c4OC[C@H]3C1)CN([C@H]1CCC(=O)NC1=O)C5=O)C2 [Compound A117, (S)-3-((R)-7-((7-(5-fluoro-4-((1R,2R)-6-hydroxy-2-phenyl-1,2,3,4-tetrahydronaphthalen-1-yl)-2-methoxyphenyl)-7-aza-spiro[3.5]nonan-2-yl)methyl)-1-oxo-1,3,5,5a,6,7,8,9-octa-hydro-2H-pyrazino[1′,2′:4,5] [1,4]oxazino[2,3-e]isoindol-2-yl)piperidine-2,6-dione]	–	10 to 100	< 50	25 to 50	–	–	–
O=C1CC[C@H](N2Cc3c(ccc4c3OC[C@H]3CN(CC5CCC6(CC5)CN(c5ccc([C@H]7c8ccc(O)cc8CC[C@H]7c7ccccc7)cc5F)C6)CCN43)C2=O)C(=O)N1 (single isomer, unassigned) [Compound A159]	–	10 to 100	50 to 500	25 to 50	–	–	–
O=C1CC[C@H](N2Cc3c(ccc4c3OCC43CCN(C[C@@H]4COC5(C4)CN(c4ccc([C@@H]6c7ccc(O)cc7CC[C@@H]6c6ccccc6)cc4)C5)CC3)C2=O)C(=O)N1 [Compound A75, (S)-3-(1′-(((R)-2-(4-((1R,2S)-6-hydroxy-2-phenyl-1,2,3,4-tetrahydronaphthalen-1-yl)phenyl)-5-oxa-2-azaspiro[3,4]octan-7-yl)methyl)-6-oxo-6,8-dihydro-2H,7H-spiro[furo[2,3-e]isoindole-3,4′-piperidin]-7-yl)piperidine-2,6-dione]	50 to 75	< 1	< 50	–	–	–	–
O=C1CC[C@H](N2Cc3c(ccc4c3OCC43CCN(C[C@H]4COC5(C4)CN(c4ccc([C@@H]6c7ccc(O)cc7CC[C@@H]6c6ccccc6)cc4)C5)CC3)C2=O)C(=O)N1 [Compound A74, (S)-3-(1′-(((S)-2-(4-((1R,2S)-6-hydroxy-2-phenyl-1,2,3,4-tetrahydronaphthalen-1-yl)phenyl)-5-oxa-2-azaspiro[3,4]octan-7-yl)methyl)-6-oxo-6,8-dihydro-2H,7H-spiro[furo[2,3-e]isoindole-3,4′-piperidin]-7-yl)piperidine-2,6-dione]	50 to 75	< 1	< 50	–	–	–	–
O=C1CC[C@H](N2Cc3c(ccc4c3OCC43CCN(CC4CCC5(CC4)CN(c4ccc([C@H]6c7ccc(O)cc7CC[C@H]6c6ccccc6)cc4F)C5)CC3)C2=O)C(=O)N1 [Compound A160, (S)-3-(1′-((2-(2-fluoro-4-((1S, 2R)-6-hydroxy-2-phenyl-1,2,3,4-tetrahydronaphthalen-1-yl)phenyl)-2-azaspiro[3.5]nonan-7-yl)methyl)-6-oxo-6,8-dihydro-2H,7H-spiro[furo[2,3-c]isoindolc-3,4′-pipcridin]-7-yl)pipcridinc-2,6-dione]	50 to 75	10 to 100	50 to 500	–	–	–	–
CN(C(=O)c1ccc2c(n1)OC[C@H]1CN(CC3COC4(CCN(c5ccc([C@@H]6c7ccc(O)cc7CC[C@@H]6c6ccccc6)cc5)CC4)C3)CCN21)C1CCC(=O)NC1=O (stereo partly drawn) [Compound B237, (4aR)-N-(2,6-dioxopiperidin-3-yl)-3-((8-(4-((1R,2S)-6-hydroxy-2-phenyl-1,2,3,4-tetrahydronaphthalen-1-yl)phenyl)-1-oxa-8-azaspiro[4.5]decan-3-yl)methyl)-N-methyl-1,2,3,4,4a,5-hexahydropyrazino[1,2-d]pyrido[2,3-b][1,4]oxazine-8-carboxamide]	–	–	–	–	> 100	1 to 10	–
O=C1CCC(N2Cc3c(ccc4c3OCC43CCN(CC4CCC5(CC4)CN(c4ccc([C@@H]6c7ccc(O)cc7CC[C@@H]6c6ccccc6)cc4)C5)CC3)C2=O)C(=O)N1 (stereo partly drawn) [Compound B228, 3-(1′-((2-(4-((1R,2S)-6-hydroxy-2-phenyl-1,2,3,4-tetrahydronaphthalen-1-yl)phenyl)-2-azaspiro[3.5]nonan-7-yl)methyl)-6-oxo-6,8-dihydro-2H,7H-spiro[furo[2,3-e]isoindole-3,4′-piperidin]-7-yl)piperidine-2,6-dione]	–	–	–	–	< 10	–	1 to 10
